Consider 10 compounds from ChEMBL document CHEMBL5126620, “Mapping the N-Terminal Hexokinase-I Binding Site onto Voltage-Dependent Anion Channel-1 To Block Peripheral Nerve Demyelination” (J Med Chem, 2022).

Series [1] can be described thus: Inhibition of VDAC mediated mitochondrial Ca2+ release in HEK293 cells transfected with mitoGCaMP2. The class given is cell-based. The following applies: Homo sapiens.
In series [2] the test system is HEK293. Nature of the series: Inhibition of VDAC in mitochondria of HEK293 cells transfected with mitoGCaMP2 assessed as calcium efflux from mitochondria by measuring decrease in mitoGCaMP2 fluorescence at 6 mM by DAPI staining confocal imaging analysis. The following applies: Homo sapiens, time 30.0 min.
Series [3] has as its system HEK293. Nature of the series: Inhibition of VDAC in mitochondria of HEK293 cells transfected with mitoGCaMP2 assessed as calcium efflux from mitochondria by measuring decrease in mitoGCaMP2 fluorescence at 33 uM by DAPI staining confocal imaging analysis. The following applies: Homo sapiens.
The test system of series [4] is HEK293. The experiment in a line: Inhibition of VDAC in mitochondria of HEK293 cells transfected with mitoGCaMP2 assessed as calcium efflux by measuring mitoGCaMP2 fluorescence in cytoplasm at 33 uM by DAPI staining confocal imaging analysis. In kind it is subcellular. The following applies: Homo sapiens.
The nature of series [5]: Metabolic stability in rat serum assessed as parent compound remaining at 66.6 uM after 24 hr incubation by LC-MS analysis relative to control. In kind it is ADME, cell-free. The following applies: read-out: Stability.
Series [6] is filed under the species Mus musculus. Nature of the series: Inhibition of demyelination in sciatic nerve explant C57BL6/J mouse model assessed as reduction in fiber damage level in serum free medium at 3 uM measured after 24 hrs by coherent anti Stokes raman scattering assay. The class given is functional.
The species named for series [7] is Mus musculus. The experiment in a line: Inhibition of demyelination in sciatic nerve explant C57BL6/J mouse model assessed as reduction in fiber damage level in serum containing medium at 3 uM measured after 24 hrs by coherent anti Stokes raman scattering assay. The class given is functional.
The species named for a further series is Homo sapiens. Nature of the series: Inhibition of VDAC (unknown origin) mediated mitochondrial Ca2+ release at 100 uM.
Series [8] in a line: Metabolic stability in rat serum assessed as parent compound remaining at 66.6 uM after 1 hr incubation by LC-MS analysis relative to control. The class given is ADME, cell-free. The following applies: read-out: Stability.

The source made the active and inactive calls. The calls are words filed in the database; no cut-off is given here. Numbered stars: 1 amine (or outer) side, 2 acyl side, 3 side chain; on linkers, the order of the positions; unused ones are H or OH. Square brackets hold non-standard residues; d marks the D form. Peptide text beside a SMILES is read from it. * marks the point of attachment. X2 = CC(C)(C(=O)*)n1cc(-c2cccc(C(F)(F)F)c2)nn1; X1 = CC(=O)CCCC[C@H](N[*:1])C(=O)[*:2]; Aib = CC(C)(N)C(=O)O

`CCCC[C@H](NC(=O)[C@H](CCC(N)=O)NC(=O)[C@@H]1CCCN1C(=O)[C@@H]1CCCN1C(=O)[C@H](CCCNC(=N)N)NC(=O)[C@H](CCCNC(=N)N)NC(=O)[C@H](CCCNC(=N)N)NC(=O)[C@H](CCC(N)=O)NC(=O)[C@H](CCCNC(=N)N)NC(=O)[C@H](CCCNC(=N)N)NC(=O)[C@H](CCCCN)NC(=O)[C@H](CCCCN)NC(=O)[C@H](CCCNC(=N)N)NC(=O)CNC(C)=O)C(=O)N[C@H](C(=O)N[C@@H](C)C(=O)N[C@@H](C)C(=O)N[C@@H](CCC(N)=O)C(=O)N[C@@H](CC(C)C)C(=O)N[C@@H](CC(C)C)C(=O)N[C@@H](C)C(=O)N[C@@H](Cc1ccc(O)cc1)C(=O)N[C@@H](Cc1ccc(O)cc1)C(=O)N[C@@H](Cc1ccccc1)C(=O)N[C@H](C(=O)N[C@@H](CCC(=O)O)C(=O)N[C@@H](CC(C)C)C(=O)N[C@@H](CCCCN)C(N)=O)[C@@H](C)O)[C@@H](C)CC` returned an IC50 in series [1] of 13.9 µM.
For the compound `CC/C=C\C[C@H]1C(=O)CC[C@@H]1CC(=O)OC`, the inhibition result in the series on HEK293 [2], in the series with HEK293 [3] and in the series on HEK293 [4] was “Active” throughout.
As for `CC(=O)N[C@@H](C)C(=O)N[C@@H](CCC(N)=O)C(=O)N[C@@H](CC(C)C)C(=O)N[C@@H](CC(C)C)C(=O)NC(C)(C)C(=O)N[C@@H](Cc1ccc(O)cc1)C(=O)N[C@@H](Cc1ccc(O)cc1)C(=O)N[C@@H](Cc1ccccc1)C(=O)N[C@H](C(=O)N[C@@H](CCC(=O)O)C(=O)N[C@@H](CC(C)C)C(=O)N[C@@H](CCCCN)C(N)=O)[C@@H](C)O` (Ac-AQLL[Aib]YYFTELK-NH2), the remaining at 24 h, 66.6 µM in series [5] is 65%.
On the same count and under the same terms, the result for `CC(=O)N[C@@H](C)C(=O)NC(C)(C)C(=O)N[C@@H](C)C(=O)NC(C)(C)C(=O)N[C@@H](C)C(=O)N[C@@H](CCC(N)=O)C(=O)N[C@@H](CC(C)C)C(=O)N[C@@H](CC(C)C)C(=O)NC(C)(C)C(=O)N[C@@H](Cc1ccc(O)cc1)C(=O)N[C@@H](Cc1ccc(O)cc1)C(=O)N[C@@H](Cc1ccccc1)C(=O)N[C@H](C(=O)N[C@@H](CCC(=O)O)C(=O)N[C@@H](CC(C)C)C(=O)N[C@@H](CCCCN)C(N)=O)[C@@H](C)O` (Ac-A[Aib]A[Aib]AQLL[Aib]YYFTELK-NH2) reads 75%.
On to `CC(=O)N[C@@H](C)C(=O)NC(C)(C)C(=O)N[C@@H](C)C(=O)NC(C)(C)C(=O)N[C@@H](C)C(=O)N[C@@H](CCC(N)=O)C(=O)N[C@@H](CC(C)C)C(=O)N[C@@H](CC(C)C)C(=O)NC(C)(C)C(=O)N[C@@H](Cc1ccc(O)cc1)C(=O)N[C@@H](Cc1ccc(O)cc1)C(=O)N[C@@H](Cc1ccccc1)C(=O)N[C@H](C(=O)N[C@@H](CCC(=O)O)C(=O)N[C@@H](CC(C)C)C(=O)N[C@@H](CCCCN)C(=O)NCC(=O)N[C@@H](CCCNC(=N)N)C(=O)N[C@@H](CCCCN)C(=O)N[C@@H](CCCCN)C(=O)N[C@@H](CCCNC(=N)N)C(=O)N[C@@H](CCCNC(=N)N)C(=O)N[C@@H](CCC(N)=O)C(=O)N[C@@H](CCCNC(=N)N)C(=O)N[C@@H](CCCNC(=N)N)C(=O)N[C@@H](CCCNC(=N)N)C(=O)N1CCC[C@H]1C(=O)N1CCC[C@H]1C(=O)N[C@@H](CCC(N)=O)C(N)=O)[C@@H](C)O` (Ac-A[Aib]A[Aib]AQLL[Aib]YYFTELKGRKKRRQRRRPPQ-NH2), for which the inhibition result in the series listed under Mus musculus [6] and in the series filed under Mus musculus [7] was “Active” in each case.
On to `CC[C@H](C)[C@H](NC(=O)[C@@H](N)CCCCC(C)=O)C(=O)N[C@@H](C)C(=O)N[C@@H](C)C(=O)N[C@@H](CCC(N)=O)C(=O)N[C@@H](CC(C)C)C(=O)N[C@@H](CC(C)C)C(=O)N[C@@H](C)C(=O)N[C@@H](Cc1ccc(O)cc1)C(=O)N[C@@H](Cc1ccc(O)cc1)C(=O)N[C@@H](Cc1ccccc1)C(=O)N[C@H](C(=O)N[C@@H](CCC(=O)O)C(=O)N[C@@H](CC(C)C)C(=O)N[C@@H](CCCCN)C(=O)NCC(=O)N[C@@H](CCCNC(=N)N)C(=O)N[C@@H](CCCCN)C(=O)N[C@@H](CCCCN)C(=O)N[C@@H](CCCNC(=N)N)C(=O)N[C@@H](CCCNC(=N)N)C(=O)N[C@@H](CCC(N)=O)C(=O)N[C@@H](CCCNC(=N)N)C(=O)N[C@@H](CCCNC(=N)N)C(=O)N[C@@H](CCCNC(=N)N)C(=O)N1CCC[C@H]1C(=O)N1CCC[C@H]1C(=O)N[C@@H](CCC(N)=O)C(N)=O)[C@@H](C)O` (H-[X1]IAAQLLAYYFTELKGRKKRRQRRRPPQ-NH2), for which the inhibition result in the series filed under Homo sapiens, with HEK293 [3] and with HEK293 [4] was “Active” in each case. Further, the half-inhibitory concentration (IC50) in [1] is 15.6 µM.
Regarding `C[C@H](NC(=O)C(C)(C)n1cc(-c2cccc(C(F)(F)F)c2)nn1)C(=O)N[C@@H](CCC(N)=O)C(=O)N[C@@H](Cc1c[nH]c2ccccc12)C(=O)N[C@@H](Cc1c[nH]c2ccccc12)C(=O)NC(C)(C)C(=O)N[C@@H](Cc1ccc(O)cc1)C(=O)N[C@@H](Cc1ccc(O)cc1)C(=O)N[C@@H](Cc1ccccc1)C(=O)N[C@H](C(=O)N[C@@H](CCC(=O)O)C(=O)N[C@@H](Cc1c[nH]c2ccccc12)C(=O)N[C@@H](CCCCN)C(=O)NCC(=O)N[C@@H](CCCNC(=N)N)C(=O)N[C@@H](CCCCN)C(=O)N[C@@H](CCCCN)C(=O)N[C@@H](CCCNC(=N)N)C(=O)N[C@@H](CCCNC(=N)N)C(=O)N[C@@H](CCC(N)=O)C(=O)N[C@@H](CCCNC(=N)N)C(=O)N[C@@H](CCCNC(=N)N)C(=O)N[C@@H](CCCNC(=N)N)C(=O)N1CCC[C@H]1C(=O)N1CCC[C@H]1C(=O)N[C@@H](CCC(N)=O)C(N)=O)[C@@H](C)O` (X2-AQWW[Aib]YYFTEWKGRKKRRQRRRPPQ-NH2), the inhibition entry in the series listed under Mus musculus [6] and in the series filed under Mus musculus [7] was “Active” throughout.
Turning to Ac-AQLLAYYFTELK-NH2, the remaining at 1 h, 66.6 µM in series [8] turned out to be 8%.
In series [1], Ac-AQWWAYYFTEWK-NH2 came in with an IC50 of 3.6 µM.
For Ac-AQWWAYYFTEWKGRKKRRQRRRPPQ-NH2, the inhibition result in the series filed under Mus musculus [6] is “Active”.
